According to patent US20210371379A1, “NOVEL SALT OF 4-({(4S)-1-(4-CARBAMIMIDOYLBENZOYL)-4-[4(METHYLSULFONYL)PIPERAZIN-1-YL]-L-PROLYL}AMINO) BENZOIC ACID AND NOVEL CRYSTAL FORM THEREOF” (ONO PHARMACEUTICAL CO., LTD., priority 2018, published 2021):

Key:
Assay type in all cases: physicochemical
[1] = Physical stability: powder X-ray measurement before and after storage; conditions: 25° C.-60% RH, 2 months
Protocol: The physical stability of monoacetate and ditosylate of Compound A was measured by the following method and conditions.
Test compounds were respectively weighed in a lab tube at about 20 mg for monoacetate and about 40 mg for ditosylate, and stored under the following conditions.
Device: D8 DISCOVER with GADDS manufactured by BRUKER axs

[2] = Chemical stability test: residual rate measurement by HPLC after storage; conditions: for Residual rate (%): versus sample stored at −20° C.
Protocol: The chemical stability of crystals of ditosylate, dibesylate, pentahydrate and monoacetate of Compound A was measured by the following method and conditions.
About 1.5 to 3 mg of a test compound was weighed in a lab tube and stored under the following conditions.
After storage, the residual rate (%) of the stored sample under each condition was calculated by HPLC based on the area percentage of main medicine of the sample stored at −20° C. In addition, appearance was visually observed and compared with the sample stored at −20° C. […]
Comparison object of each sample was stored at −20° C.
An evaluation sample (0.8 mg) was dissolved in a mixed solution of acetonitrile/100 mM NaClO4 […] about 0.8 mL (sample concentration: 1.0 mg/mL) acetonitrile/100 mmol/L NaClO4 aq. (pH3.0) (3/1) to prepare a solution of 1.0 mg/mL (concentration as salt).
Detector: Ultraviolet absorptiometer (measurement wavelength: 265 nm)
Column: SPELCO Ascentis Express (150 mm×4.6 mm, S-2.7 μm)
Column temperature: 25° C.
Mobile phase: Solution A: 100 mmol/L NaClO4 aq. (pH 3.0), Solution B: acetonitrile
Area measurement range: 34.6 minutes

[3] = Hygroscopicity evaluation (isotherm adsorption curve); conditions: 25° C., relative humidity in the range of 5% to 70%
Protocol: The isotherm adsorption curve was measured under the following conditions. Ditosylate, monoacetate and pentahydrate of Compound A were measured under Condition 1, and besylate of […] was measured under Condition 2.
Measurement temperature: 25° C.
Measurement range: Relative humidity of 5 to 95%
Measurement interval: Relative humidity of 5%
Measurement range: Relative humidity of 0 to 95%

[4] = crystals stored at 40° C.-75% RH (opened) for 2 months
[5] = crystals stored at 60° C. for 1 month
[6] = crystals stored at 40° C. for 2 months

Structure (SMILES)	change of powder X-ray diffraction spectrum before and after storage [1]	Residual rate (%) ([2]; crystals stored at 40° C. for 2 months, monoacetate)	Residual rate (%) ([2]; crystals stored at 40° C.-75% RH (opened) for 2 months, monoacetate)	Residual rate (%) ([2]; crystals stored at 60° C. for 1 month, monoacetate)	weight gain ([3]; listed as monoacetate of Compound A, monoacetate) [wt %]	Residual rate (%) [2, 4] [%]	Residual rate (%) [2, 5] [%]	weight gain [3] [wt %]	Residual rate (%) [2, 6] [%]	residual rate ([2]; under the conditions of 40° C.-75%)	weight gain ([3]; listed as pentahydrate of Compound A) [wt %]
CS(=O)(=O)N1CCN([C@H]2C[C@@H](C(=O)Nc3ccc(C(=O)O)cc3)N(C(=O)c3ccc(C(=N)N)cc3)C2)CC1 [Monoacetate, 4-({(4S)-1-(4-Carbamimidoylbenzoyl)-4-[4-(methylsulfonyl)piperazin-1-yl]-L-prolyl}amino) benzoic acid monoacetate]	change in the spectra was recognized	99	95	97.5	6.4	–	–	–	–	–	–
CS(=O)(=O)N1CCN([C@H]2C[C@@H](C(=O)Nc3ccc(C(=O)O)cc3)N(C(=O)c3ccc(C(=N)N)cc3)C2)CC1.O=S(=O)(O)c1ccccc1 [Dibesylate, 4-({(4S)-1-(4-Carbamimidoylbenzoyl)-4-[4-(methylsulfonyl)piperazin-1-yl]-L-prolyl}amino) benzoic acid dibenzenesulfonate]	–	–	–	–	–	99.5	100	1.9	–	–	–
CS(=O)(=O)N1CCN([C@H]2C[C@@H](C(=O)Nc3ccc(C(=O)O)cc3)N(C(=O)c3ccc(C(=N)N)cc3)C2)CC1 [Pentahydrate, 4-({(4S)-1-(4-Carbamimidoylbenzoyl)-4-[4-(methylsulfonyl)piperazin-1-yl]-L-prolyl}amino) benzoic acid pentahydrate]	–	–	–	–	–	37	23.1	–	36.3	reduced residual rate	12.2
CS(=O)(=O)N1CCN([C@H]2C[C@@H](C(=O)Nc3ccc(C(=O)O)cc3)N(C(=O)c3ccc(C(=N)N)cc3)C2)CC1.Cc1ccc(S(=O)(=O)O)cc1 [Ditosylate, 4-({(4S)-1-(4-Carbamimidoylbenzoyl)-4-[4-(methylsulfonyl)piperazin-1-yl]-L-prolyl}amino) benzoic acid di(4-toluenesulfonate)]	no significant peak change was recognized	–	–	–	–	99.3	100	1.5	100	–	–
